# Laboratory results: patent publication US20240158393A1, “PYRIDONE COMPOUNDS AND METHODS OF USE” (Exelixis, Inc., priority 2021, published 2024)
# Tests used:
# Format in all cases: biochemical
# Human Mer = molecular target: T1, Human Mer (Homo sapiens, UniProt Q12866); assay: Human Mer kinase assay (33P radiometric / HTRF KinEase); conditions: protocols of Examples C-1 and/or C-2
# T1 construct: Human Mer (residues R557-E882 with H628Q and R794A, 0.7 nM); purchased Eurofins Pharma Discovery Services UK Limited (KinaseProfiler service)
# T1 sequence (Q12866 557-882 limits assumed): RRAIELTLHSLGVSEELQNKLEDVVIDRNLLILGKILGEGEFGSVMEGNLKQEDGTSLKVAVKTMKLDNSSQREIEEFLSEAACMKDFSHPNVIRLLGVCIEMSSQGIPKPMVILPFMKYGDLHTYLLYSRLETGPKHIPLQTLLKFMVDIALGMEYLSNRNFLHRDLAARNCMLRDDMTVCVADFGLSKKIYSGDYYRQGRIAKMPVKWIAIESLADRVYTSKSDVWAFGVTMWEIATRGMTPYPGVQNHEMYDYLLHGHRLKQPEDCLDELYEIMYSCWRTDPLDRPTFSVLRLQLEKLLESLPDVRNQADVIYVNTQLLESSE
# Protocol: (§1) Kinase activity and compound inhibition were investigated using the ^33P-Phosphoryl transfer radiometric kinase assay, performed using the KinaseProfiler™ service of Eurofins Pharma Discovery Services UK Limited. Dose-response experiments were performed using nine compound concentrations in a 96-well microtiter plate. For each assay, all compounds were prepared to a 50× final assay concentration (50 μM) in 100% DMSO, then diluted in a half-log series, with the final top concentration at 1 μM. This working stock of the compound was added to the assay well as the first component in the reaction, followed by the remaining components as detailed in the following assay protocols below. The positive control wells (100% kinase activity) contain all components of the reaction including 2% DMSO (control for solvent effects), except the compound of interest. Blank wells contain all components of the reaction, with the reference inhibitor, staurosporine. This reference compound was used to abolish kinase activity and generated the 0% kinase activity base-line. IC50 values were calculated by nonlinear regression analysis using the sigmoidal dose-response (variable slope) curve fit on XLFit version 5.3 (ID Business Solutions).
# (§2) Kinase activity and compound inhibition were also investigated using the HTRF® KinEase assay (Cisbio Cat #62TKOPEB) per manufacturer's instructions. In short, compounds were delivered in 300 nL volumes at 10 different concentrations in DMSO (3% final) to empty 384-well assay plates (Corning cat #3824). A mixture of enzyme, 1 μM biotinylated peptide substrate, and buffer in 10 μL volume was added. The assay was started upon the addition of ATP (at Km). The 10 μL reaction was incubated at room temperature. The reaction was stopped upon the addition of detection buffer containing streptavidin-XL665 (5 μL) and TK antibody-Eu3+(5 μL). After a 60 min incubation at room temperature, the fluorescence at 665 nm and 620 nm was read on an Envision microplate reader (Perkin Elmer).
# (§3) Kinase activity normalized to DMSO (100% activity) and reference compound at 1 μM and (0% activity) was calculated using the fluorescence ratio […]. IC50 values were calculated by nonlinear regression analysis using a 4-parameter logistic curve fit in ActivityBase XE (IDBS).
# (§4) Example C-1: Human Mer (residues R557-E882 with H628Q and R794A, 0.7 nM) was incubated with 8 mM MOPS pH 7.0, 0.2 mM EDTA, 30 mM NaCl, 250 μM GGMEDIYFEFMGGKKK (SEQ ID NO: 2), 10 mM magnesium acetate, and 10 μM [γ-^33P-ATP]. The reaction was initiated by the addition of the Mg/ATP mix. After incubation for 40 minutes at room temperature, the reaction was stopped by the addition of phosphoric acid to a concentration of 0.5%. A reaction aliquot of 10 μL was then spotted onto a P30 filtermat and washed four times for 4 minutes in 0.425% phosphoric acid and once in methanol prior to drying and scintillation counting. Incorporated ^33P was measured using the Wallac Microbeta scintillation counter (Perkin Elmer).
# Example C-2: Human MER (residues 528-999; CarnaBio, 1 ng/well) was also incubated with enzymatic buffer (Cisbio) supplemented with 5 mM MgCl2 and 1 mM DTT. The mixture was added to the pre-plated compounds. The reaction was initiated upon addition of ATP at Km (40 μM). The reaction was incubated at room temperature for 60 min and stopped upon the addition of SA-XL665 and TK-antibody both diluted in EDTA-containing kinase detection buffer (Cisbio). The kinase activity was calculated as stated above and the IC50 values were reported.
# Human Met = molecular target: T2, Human Met (Homo sapiens, UniProt P08581); assay: Human Met kinase assay (33P radiometric / HTRF KinEase); conditions: protocols of Examples D-1 and/or D-2; read-out: c-Met IC50
# T2 construct: Human MET (residues 956-1390)
# Protocol: as §1, §2, §3
# Example D-1: Human Met (residues R974-S1390 with A1209G and V1290L, 3.4 nM) was incubated with 8 mM MOPS pH 7.0, 0.2 mM EDTA, 250 μM KKKGQEEEYVFIE (SEQ ID NO:3), 1 mM sodium orthovanadate, 5 mM […], 10 mM magnesium acetate, and 10 μM [γ-^33P-ATP]. The reaction was initiated by the addition of the Mg/ATP mix. After incubation for 40 minutes at room temperature, the reaction was stopped by the addition of phosphoric acid to a concentration of 0.5%. A reaction aliquot of 10 μL was then spotted onto a P30 filtermat and washed four times for 4 minutes in 0.425% phosphoric acid and once in methanol prior to drying and scintillation counting. Incorporated ^33P was measured using the Wallac Microbeta scintillation counter (Perkin Elmer).
# (§5) Example D-2: Human MET (residues 956-1390; CarnaBio, 0.1 ng/well) was also incubated with enzymatic buffer (Cisbio) supplemented with 5 mM MgCl2, 1 mM DTT and 1 mM MnCl2. The mixture was added to the pre-plated compounds. The reaction was initiated upon addition of ATP at Km (3.0 μM). The reaction was incubated at room temperature for 40 min and stopped upon the addition of SA-XL665 and TK-antibody both diluted in EDTA-containing kinase detection buffer (Cisbio). The kinase activity was calculated as stated above and the IC50 values were reported.
# Human KDR = molecular target: T3, Human KDR (Homo sapiens, UniProt P35968); assay: Human KDR kinase assay (33P radiometric / HTRF KinEase); conditions: protocols of Examples B-1 and/or B-2
# T3 construct: Human KDR (residues K790-V1356, 55 nM); purchased Eurofins Pharma Discovery Services UK Limited (KinaseProfiler, B-1) and/or CarnaBio (B-2)
# Protocol: as §1, §2, §3
# as §4, with “B-1:” for “C-1:”, “KDR” for “Mer”, “K790-V1356, 55” for “R557-E882 with H628Q and R794A, 0.7”, “0.33 mg/mL myelin basic protein,” for “30 mM NaCl, 250 μM GGMEDIYFEFMGGKKK (SEQ ID NO: 2),”
# as §5, with “B-2:” for “D-2:”, “KDR” for “MET”, “790-1356;” for “956-1390;”, “MnCl2,” for “DTT”, “DTT.” for “MnCl2.”, “(4.0” for “(3.0”
# T3 sequence (P35968 790-1356): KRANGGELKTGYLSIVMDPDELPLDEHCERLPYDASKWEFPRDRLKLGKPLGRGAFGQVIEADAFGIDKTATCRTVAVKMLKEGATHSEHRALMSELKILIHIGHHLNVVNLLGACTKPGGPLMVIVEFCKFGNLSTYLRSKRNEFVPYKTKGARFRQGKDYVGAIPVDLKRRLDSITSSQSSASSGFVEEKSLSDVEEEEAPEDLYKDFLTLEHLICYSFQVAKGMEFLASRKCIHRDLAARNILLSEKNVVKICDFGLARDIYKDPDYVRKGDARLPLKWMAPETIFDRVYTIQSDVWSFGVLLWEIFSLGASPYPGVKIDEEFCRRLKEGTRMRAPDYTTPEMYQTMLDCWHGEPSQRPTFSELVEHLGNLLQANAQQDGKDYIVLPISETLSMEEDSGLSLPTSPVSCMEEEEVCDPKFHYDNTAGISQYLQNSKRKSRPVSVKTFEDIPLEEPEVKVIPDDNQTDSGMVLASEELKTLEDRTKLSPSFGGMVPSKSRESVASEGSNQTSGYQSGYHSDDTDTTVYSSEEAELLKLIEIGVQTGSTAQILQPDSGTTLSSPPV
# T2 sequence (P08581 974-1390 limits assumed): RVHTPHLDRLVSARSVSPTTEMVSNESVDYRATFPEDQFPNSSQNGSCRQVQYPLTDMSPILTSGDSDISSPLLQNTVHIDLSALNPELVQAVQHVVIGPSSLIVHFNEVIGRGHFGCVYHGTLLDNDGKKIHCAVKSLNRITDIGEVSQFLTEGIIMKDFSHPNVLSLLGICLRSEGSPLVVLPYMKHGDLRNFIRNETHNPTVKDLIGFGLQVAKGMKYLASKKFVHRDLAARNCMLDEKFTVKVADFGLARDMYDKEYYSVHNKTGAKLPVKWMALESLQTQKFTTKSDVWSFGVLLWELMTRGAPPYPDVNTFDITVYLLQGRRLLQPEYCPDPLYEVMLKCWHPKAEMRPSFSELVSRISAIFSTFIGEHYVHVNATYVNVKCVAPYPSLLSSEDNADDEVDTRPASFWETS
IC50 (Human Mer),IC50 (Human Met),IC50 (Human KDR),SMILES
≤ 100 nM,≤ 100 nM,100 to 300 nM,"COc1cc2nccc(Oc3ccc(NC(=O)c4c5n(cc(C6=CCCC6)c4=O)CCOC5)cc3F)c2nc1OC [Compound G1-1, 7-(Cyclopenten-1-yl)-N-[4-[(6,7-dimethoxy-1,5-naphthyridin-4-yl)oxy]-3-fluorophenyl]-8-oxo-3,4-dihydro-1H-pyrido[2,1-c][1,4]oxazine-9-carboxamide]"
≤ 100 nM,≤ 100 nM,> 300 nM,"COc1cc2nccc(Oc3ccc(NC(=O)c4c5n(cc(C6=CCOCC6)c4=O)CCOC5)cc3F)c2nc1OC [Compound G1-7, 7-(3,6-Dihydro-2H-pyran-4-yl)-N-[4-[(6,7-dimethoxy-1,5-naphthyridin-4-yl)oxy]-3-fluorophenyl]-8-oxo-3,4-dihydro-1H-pyrido[2,1-c][1,4]oxazine-9-carboxamide]"
> 300 nM,> 300 nM,≤ 100 nM,"COCCOc1cc2ncnc(Oc3ccc(NC(=O)c4c(C)nc(C)c(OC)c4O)cc3F)c2nc1OC [Compound 72, N-[3-Fluoro-4-[6-methoxy-7-(2-methoxyethoxy)pyrido[3,2-d]pyrimidin-4-yl]oxyphenyl]-4-hydroxy-5-methoxy-2,6-dimethylpyridine-3-carboxamide]"
> 300 nM,> 300 nM,≤ 100 nM,"COc1cc2nccc(Oc3ccc(NC(=O)c4c(C)nc(C)c(OC)c4O)cc3)c2nc1OC [Compound 61, N-[4-[(6,7-Dimethoxy-1,5-naphthyridin-4-yl)oxy]phenyl]-4-hydroxy-5-methoxy-2,6-dimethylpyridine-3-carboxamide]"
≤ 100 nM,> 300 nM,100 to 300 nM,"COc1cnc2c(Oc3ccc(NC(=O)c4c(C)nc(C)c(OC)c4O)cc3)ccnc2c1 [Compound 59, 4-Hydroxy-5-methoxy-N-[4-[(7-methoxy-1,5-naphthyridin-4-yl)oxy]phenyl]-2,6-dimethylpyridine-3-carboxamide]"
> 300 nM,> 300 nM,> 300 nM,"COCCOc1cnc2c(Oc3ccc(NC(=O)c4c(C)n(C)c(C)c(C5=CCOCC5)c4=O)cc3F)ccnc2c1 [Compound 67, 5-(3,6-Dihydro-2H-pyran-4-yl)-N-[3-fluoro-4-[[7-(2-methoxyethoxy)-1,5-naphthyridin-4-yl]oxy]phenyl]-1,2,6-trimethyl-4-oxopyridine-3-carboxamide]"
> 300 nM,> 300 nM,> 300 nM,"COc1cc2nccc(Oc3ccc(NC(=O)c4c(C)n(C)c(C)c(OC)c4=O)cc3)c2nc1OC [Compound 76, N-[4-[(6,7-Dimethoxy-1,5-naphthyridin-4-yl)oxy]phenyl]-5-methoxy-1,2,6-trimethyl-4-oxopyridine-3-carboxamide]"
> 300 nM,> 300 nM,≤ 100 nM,"COCCOc1cc2nccc(Oc3ccc(NC(=O)c4c(C)nc(C)c(OC)c4O)cc3F)c2nc1OC [Compound 70, N-[3-Fluoro-4-[[6-methoxy-7-(2-methoxyethoxy)-1,5-naphthyridin-4-yl]oxy]phenyl]-4-hydroxy-5-methoxy-2,6-dimethylpyridine-3-carboxamide]"
≤ 100 nM,> 300 nM,> 300 nM,"CCc1c(Br)c(=O)c(C(=O)Nc2cc(F)c(Oc3ccnc4cc(OC)c(OC)nc34)cc2F)cn1C [Compound 63, 5-Bromo-N-[4-[(6,7-dimethoxy-1,5-naphthyridin-4-yl)oxy]-2,5-difluorophenyl]-6-ethyl-1-methyl-4-oxopyridine-3-carboxamide]"
> 300 nM,> 300 nM,> 300 nM,"COc1cc2nccc(Oc3ccc(NC(=O)c4c(C)n(C)c(C)c(C#N)c4=O)cc3F)c2nc1OC [Compound 78, 5-Cyano-N-[4-[(6,7-dimethoxy-1,5-naphthyridin-4-yl)oxy]-3-fluorophenyl]-1,2,6-trimethyl-4-oxopyridine-3-carboxamide]"
≤ 100 nM,≤ 100 nM,≤ 100 nM,"COc1cnc2c(Oc3ccc(NC(=O)c4cnc(C)c(C5=CCCCC5)c4O)cc3F)ccnc2c1 [Compound 1-8, 5-(Cyclohexen-1-yl)-N-[3-fluoro-4-[(7-methoxy-1,5-naphthyridin-4-yl)oxy]phenyl]-4-hydroxy-6-methylpyridine-3-carboxamide]"
≤ 100 nM,> 300 nM,> 300 nM,"CCc1c(Br)c(=O)c(C(=O)Nc2ccc(Oc3ccnc4cc(OCCOC)c(OC)nc34)cc2)cn1C [Compound 64, 5-Bromo-6-ethyl-N-[4-[[6-methoxy-7-(2-methoxyethoxy)-1,5-naphthyridin-4-yl]oxy]phenyl]-1-methyl-4-oxopyridine-3-carboxamide]"
> 300 nM,> 300 nM,> 300 nM,"COc1cnc2c(Oc3ccc(NC(=O)c4c(C)n(C)c(C)c(OC)c4=O)cc3F)ccnc2c1 [Compound 75, N-[3-Fluoro-4-[(7-methoxy-1,5-naphthyridin-4-yl)oxy]phenyl]-5-methoxy-1,2,6-trimethyl-4-oxopyridine-3-carboxamide]"
